Results from patent US10081624B2, “Heterocyclic compound” (Takeda Pharmaceutical Company Limited, priority 2014, dated 2018).

Experiments:
[1] = biological target: T1, HDAC1 enzyme (Homo sapiens, UniProt Q13547); assay: HDAC1 enzyme inhibitory assay (HDAC-Glo I/II Assay kit); type: biochemical; settings: 1 μM test compound; for inhibition at 1 µM: read-out: HDAC1 inhibitory rate (%) (1 μM)
T1 construct: prepared by transducing full length HDAC1 and HDAC6 genes into Sf-9 insect cells; GST; purchased SignalChem; host or cells: Sf-9 insect cells
Method: HDAC1 enzyme and HDAC6 enzyme each prepared by transducing full length HDAC1 and HDAC6 genes into Sf-9 insect cells and purifying by GST affinity column were purchased from SignalChem. Using these enzymes, HDAC1 and/or HDAC6 enzyme inhibitory activities of the compound of the present invention were evaluated. Enzymes were used after preserved at −70° C. HDAC1 or HDAC6 enzyme inhibitory activity of the compound of the present invention was measured using HDAC-Glo™ I/II Assay kit (Promega) according to the following experimental method. The test compound diluted with assay buffer (24 mM Tris-HCl (pH 7.5), 1 mM MgCl2, 0.35 mM KCl, 135 mM NaCl, 0.6 mM Glutathione, 0.01% Tween-20) was added to a 384-well plate by each 2 μL. Then, HDAC1 or HDAC6 enzyme solution diluted with assay buffer was added thereto by each 4 μL, and the plate was incubated at room temperature for 60 min. After incubated, HDAC substrate-Developer solution prepared according to Promega protocol attached to the assay kit was added to the 384-well plate by each 2 μL, and the enzyme reaction was started. After reacting at room temperature for 20 min, luminescence level was measured using plate reader Envision (PerkinElmer). The inhibitory activity of each compound was calculated as a relative activity value when luminescence level in wells without enzyme is considered as 100% inhibition.

[2] = biological target: T2, HDAC6 enzyme (Homo sapiens, UniProt Q9UBN7); assay: HDAC6 enzyme inhibitory assay (HDAC-Glo I/II Assay kit); type: biochemical; settings: 1 μM test compound; for inhibition at 1 µM: read-out: HDAC6 inhibitory rate (%) (1 μM)
T2 construct: prepared by transducing full length HDAC1 and HDAC6 genes into Sf-9 insect cells; GST; purchased SignalChem; host or cells: Sf-9 insect cells
T2 sequence (Q9UBN7 1-1215): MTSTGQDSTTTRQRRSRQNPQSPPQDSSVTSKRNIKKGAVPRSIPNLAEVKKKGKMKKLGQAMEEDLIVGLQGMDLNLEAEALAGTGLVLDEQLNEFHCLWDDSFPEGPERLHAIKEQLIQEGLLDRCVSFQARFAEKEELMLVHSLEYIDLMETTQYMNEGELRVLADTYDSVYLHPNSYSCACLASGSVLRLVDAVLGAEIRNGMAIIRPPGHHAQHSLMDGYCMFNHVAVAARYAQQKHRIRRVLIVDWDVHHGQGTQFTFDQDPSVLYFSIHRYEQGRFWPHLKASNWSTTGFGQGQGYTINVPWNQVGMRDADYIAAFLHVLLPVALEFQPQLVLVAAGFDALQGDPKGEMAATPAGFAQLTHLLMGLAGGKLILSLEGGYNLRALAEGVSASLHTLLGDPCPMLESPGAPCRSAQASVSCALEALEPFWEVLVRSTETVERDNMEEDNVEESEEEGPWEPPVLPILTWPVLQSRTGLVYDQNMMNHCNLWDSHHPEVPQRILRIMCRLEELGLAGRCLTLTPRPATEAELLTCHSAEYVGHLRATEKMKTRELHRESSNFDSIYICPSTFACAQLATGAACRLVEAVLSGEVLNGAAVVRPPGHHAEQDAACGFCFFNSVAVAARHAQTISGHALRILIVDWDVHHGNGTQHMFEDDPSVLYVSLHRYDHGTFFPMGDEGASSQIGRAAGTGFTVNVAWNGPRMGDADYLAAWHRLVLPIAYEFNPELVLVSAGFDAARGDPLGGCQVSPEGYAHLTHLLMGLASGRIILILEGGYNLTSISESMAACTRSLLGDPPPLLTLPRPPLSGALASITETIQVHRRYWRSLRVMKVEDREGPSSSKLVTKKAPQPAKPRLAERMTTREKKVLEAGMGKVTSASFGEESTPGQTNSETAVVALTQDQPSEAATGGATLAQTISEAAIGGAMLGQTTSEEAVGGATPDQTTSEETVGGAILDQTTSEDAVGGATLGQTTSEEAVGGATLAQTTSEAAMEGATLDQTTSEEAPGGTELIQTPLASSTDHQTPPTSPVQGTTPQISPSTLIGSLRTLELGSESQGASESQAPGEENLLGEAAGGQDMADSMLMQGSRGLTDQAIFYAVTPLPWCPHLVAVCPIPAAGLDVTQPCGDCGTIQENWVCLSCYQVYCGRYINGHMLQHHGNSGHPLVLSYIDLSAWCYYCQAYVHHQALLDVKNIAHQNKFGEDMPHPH
Outline: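 Relative activity was calculated from luminescence, with wells lacking enzyme defined as 100% inhibition. The enzymes were full-length HDAC1 or HDAC6 from Sf-9 cells, preincubated with test compound for 60 min before a 20-min substrate-developer reaction at room temperature.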

T1 sequence (Q13547 whole entry): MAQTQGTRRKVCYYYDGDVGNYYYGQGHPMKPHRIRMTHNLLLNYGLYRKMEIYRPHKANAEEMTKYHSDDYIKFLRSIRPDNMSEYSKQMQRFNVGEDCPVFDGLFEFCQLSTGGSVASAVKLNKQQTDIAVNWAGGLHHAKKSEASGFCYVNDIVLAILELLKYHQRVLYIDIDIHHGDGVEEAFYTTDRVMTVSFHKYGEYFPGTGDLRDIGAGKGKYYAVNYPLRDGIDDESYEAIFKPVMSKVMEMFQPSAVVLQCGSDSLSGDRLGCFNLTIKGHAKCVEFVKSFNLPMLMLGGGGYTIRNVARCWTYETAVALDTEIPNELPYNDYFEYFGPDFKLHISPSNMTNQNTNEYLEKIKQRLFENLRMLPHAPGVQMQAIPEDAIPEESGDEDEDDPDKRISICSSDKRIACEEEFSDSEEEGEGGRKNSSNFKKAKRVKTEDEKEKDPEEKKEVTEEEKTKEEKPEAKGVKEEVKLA

| SMILES | inhibition at 1 µM [1] [%] | inhibition at 1 µM [2] [%] | further results |
| --- | --- | --- | --- |
| O=C(NC[C@H]1COCCN1C(=O)c1cc(Cl)cc(Cl)c1)c1ccc(-c2noc(C(F)(F)F)n2)cc1 [Example 37, N-(((3S)-4-(3,5-dichlorobenzoyl)morpholin-3-yl)methyl)-4-(5-(trifluoromethyl)-1,2,4-oxadiazol-3-yl)benzamide] | – | – | HDAC1 inhibitory rate (%) (1 μM) ([1]; 1 µM): 27%; HDAC6 inhibitory rate (%) (1 μM) ([2]; 1 µM): 98% |
| O=C(C[C@H]1COCCN1C(=O)c1ccccc1)Nc1ccc(-c2noc(C(F)(F)F)n2)cc1 [Example 160, 2-((3S)-4-benzoylmorpholin-3-yl)-N-(4-(5-(trifluoromethyl)-1,2,4-oxadiazol-3-yl)phenyl)acetamide] | 15 | 98 | – |
| Cc1oncc1C(=O)N1CCOCC1CNC(=O)c1ccc(-c2noc(C(F)(F)F)n2)s1 (stereo not drawn) [Example 235, N-((4-((5-methyl-1,2-oxazol-4-yl)carbonyl)morpholin-3-yl)methyl)-5-(5-(trifluoromethyl)-1,2,4-oxadiazol-3-yl)thiophene-2-carboxamide] | 17 | 99 | – |
| Cc1cc(C(=O)N2CCOC[C@H]2CNC(=O)c2ccc(-c3noc(C(F)(F)F)n3)cc2)n(C)n1 [Example 135, N-(((3R)-4-((1,3-dimethyl-1H-pyrazol-5-yl)carbonyl)morpholin-3-yl)methyl)-4-(5-(trifluoromethyl)-1,2,4-oxadiazol-3-yl)benzamide] | – | 91 | – |
| O=C(NC[C@H]1COCCN1C(=O)C1CC1)c1ccc(-c2noc(C(F)(F)F)n2)cc1 [Example 75, N-(((3S)-4-(cyclopropylcarbonyl)morpholin-3-yl)methyl)-4-(5-(trifluoromethyl)-1,2,4-oxadiazol-3-yl)benzamide] | – | 92 | – |
| O=C(NCC1COCCN1C(=O)c1ccccc1N1CCOCC1)c1ccc(-c2noc(C(F)(F)F)n2)s1 (stereo not drawn) [Example 220, N-((4-(2-(morpholin-4-yl)benzoyl)morpholin-3-yl)methyl)-5-(5-(trifluoromethyl)-1,2,4-oxadiazol-3-yl)thiophene-2-carboxamide] | – | 94 | – |
| Cn1nc(C(F)(F)F)cc1C(=O)N1CCOCC1CNC(=O)c1ccc(-c2noc(C(F)(F)F)n2)s1 (stereo not drawn) [Example 231, N-((4-((1-methyl-3-(trifluoromethyl)-1H-pyrazol-5-yl)carbonyl)morpholin-3-yl)methyl)-5-(5-(trifluoromethyl)-1,2,4-oxadiazol-3-yl)thiophene-2-carboxamide] | – | 92 | – |
| O=C(NCC1Cc2ccccc2N1C(=O)C1CC1)c1ccc(-c2noc(C(F)(F)F)n2)cc1 (stereo not drawn) [Example 166, N-((1-(cyclopropylcarbonyl)-2,3-dihydro-1H-indol-2-yl)methyl)-4-(5-(trifluoromethyl)-1,2,4-oxadiazol-3-yl)benzamide] | – | 98 | – |
| Cc1cc(C(=O)N2CCOCC2CNC(=O)c2ccc(-c3noc(C(F)(F)F)n3)s2)on1 (stereo not drawn) [Example 240, N-((4-((3-methyl-1,2-oxazol-5-yl)carbonyl)morpholin-3-yl)methyl)-5-(5-(trifluoromethyl)-1,2,4-oxadiazol-3-yl)thiophene-2-carboxamide] | – | 89 | – |
| Cn1cc(C(=O)N2CCOCC2CNC(=O)c2ccc(-c3noc(C(F)(F)F)n3)s2)cn1 (stereo not drawn) [Example 233, N-((4-((1-methyl-1H-pyrazol-4-yl)carbonyl)morpholin-3-yl)methyl)-5-(5-(trifluoromethyl)-1,2,4-oxadiazol-3-yl)thiophene-2-carboxamide] | – | 78 | – |

More lines, main results first:

| inhibition at 1 µM [1] [%] | inhibition at 1 µM [2] [%] | SMILES | further results |
| --- | --- | --- | --- |
| 12 | 96 | O=C(NC[C@@H]1COCCN1C(=O)c1csnn1)c1ccc(-c2noc(C(F)(F)F)n2)cc1 [Example 142, N-(((3R)-4-(1,2,3-thiadiazol-4-ylcarbonyl)morpholin-3-yl)methyl)-4-(5-(trifluoromethyl)-1,2,4-oxadiazol-3-yl)benzamide] | – |
| 22 | 101 | Cc1oncc1C(=O)N1CCOC[C@@H]1CNC(=O)c1ccc(-c2noc(C(F)(F)F)n2)cc1 [Example 59, N-(((3S)-4-((5-methyl-1,2-oxazol-4-yl)carbonyl)morpholin-3-yl)methyl)-4-(5-(trifluoromethyl)-1,2,4-oxadiazol-3-yl)benzamide] | – |
| 18 | 100 | Cc1ccsc1C(=O)N1CCOC[C@@H]1CNC(=O)c1ccc(-c2noc(C(F)(F)F)n2)cc1 [Example 74, N-(((3S)-4-((3-methyl-2-thienyl)carbonyl)morpholin-3-yl)methyl)-4-(5-(trifluoromethyl)-1,2,4-oxadiazol-3-yl)benzamide] | – |
| 15 | 97 | Cc1csc(C(=O)N2CCOC[C@H]2CNC(=O)c2ccc(-c3noc(C(F)(F)F)n3)cc2)c1 [Example 145, N-(((3R)-4-((4-methyl-2-thienyl)carbonyl)morpholin-3-yl)methyl)-4-(5-(trifluoromethyl)-1,2,4-oxadiazol-3-yl)benzamide] | – |
| – | 95 | O=C(NC[C@H]1COCCN1C(=O)CCc1ccccc1)c1ccc(-c2noc(C(F)(F)F)n2)cn1 [Example 203, N-(((3S)-4-(3-phenylpropanoyl)morpholin-3-yl)methyl)-5-(5-(trifluoromethyl)-1,2,4-oxadiazol-3-yl)pyridine-2-carboxamide] | – |
| – | 92 | O=C(NCC1COCCN1C(=O)c1cccnc1)c1ccc(-c2noc(C(F)(F)F)n2)s1 (stereo not drawn) [Example 225, N-((4-(pyridin-3-ylcarbonyl)morpholin-3-yl)methyl)-5-(5-(trifluoromethyl)-1,2,4-oxadiazol-3-yl)thiophene-2-carboxamide] | – |
| – | 88 | Cn1cc(C(=O)N2CCOC[C@@H]2CNC(=O)c2ccc(-c3noc(C(F)(F)F)n3)cc2)cn1 [Example 66, N-(((3S)-4-((1-methyl-1H-pyrazol-4-yl)carbonyl)morpholin-3-yl)methyl)-4-(5-(trifluoromethyl)-1,2,4-oxadiazol-3-yl)benzamide] | – |
| – | 93 | Cn1ccc(C(=O)N2CCOC[C@H]2CNC(=O)c2ccc(-c3noc(C(F)(F)F)n3)cc2)n1 [Example 137, N-(((3R)-4-((1-methyl-1H-pyrazol-3-yl)carbonyl)morpholin-3-yl)methyl)-4-(5-(trifluoromethyl)-1,2,4-oxadiazol-3-yl)benzamide] | – |
| – | 95 | O=C(NC[C@H]1COCCN1C(=O)Cc1cccs1)c1ccc(-c2noc(C(F)(F)F)n2)cn1 [Example 201, N-(((3S)-4-(2-thienylacetyl)morpholin-3-yl)methyl)-5-(5-(trifluoromethyl)-1,2,4-oxadiazol-3-yl)pyridine-2-carboxamide] | – |
| – | 97 | O=C(NC[C@H]1COCCN1C(=O)c1cccs1)c1ccc(-c2noc(C(F)(F)F)n2)cn1 [Example 197, N-(((3S)-4-(2-thienylcarbonyl)morpholin-3-yl)methyl)-5-(5-(trifluoromethyl)-1,2,4-oxadiazol-3-yl)pyridine-2-carboxamide] | – |
